pIC50: −log10 of the molar value. Read-outs that look alike come from different tables or passages of the source.
How the values were obtained:
ICAM-1 = experiment: Inhibition of cytokine-induced ICAM-1 expression in proliferating HUVEC (cell-surface ELISA); assay type: cell-based, human
Protocol: (§1) Plate proliferating human umbilical vein endothelial cells (HUVEC) or human aortic smooth muscle cells (HASMC) from Clonetics (San Diego, CA) onto 96-well plates in 100 µL medium per well at 20,000 cells per cm^2. Maintain the cultures in growth medium (EGM or SMGM2, Clonetics, San Diego, CA) for two days prior to addition of cytokines or drugs. Add cytokines plus or minus compounds for 20 to 24 hours prior to analysis for adhesion molecule levels. Add tumor necrosis factor (Genzyme, Cambridge, MA) to cultures at 500-1000 units/mL to stimulate adhesion molecule expression. Add interleukin-4 (GIBCO-BRL, Gaithersburg, MD) to cultures at 100-200 pg/mL to stimulate VCAM-1 expression. […] Remove the culture medium, and wash the monolayers twice with Hanks buffered saline solution (HBSS) at room temperature. Add the primary antibody (anti-human VCAM-1 from Upstate Biotechnology, Inc., Lake Placid, NY or anti-human ICAM-1 from Immunotech, Inc., Westbrook, ME) to each well (1 µg/mL in HBSS plus 5% newborn calf serum, GIBCO-BRL, Gaithersburg, MD) and incubate at 37°C for 1 hr. Wash the wells twice with HBSS, then add 100 µL of a 1/1000 dilution of goat anti-mouse IgG conjugated to horse radish peroxidase (BioRad, Hercules, CA) in HBSS plus 5% newborn calf serum to each well and incubated for 1 hr at 37°C. Wash the wells three times with HBSS, then add 100 µL of TMB substrate (BioRad, Hercules, CA) to each well. Stop the reaction after blue color develops by addition of 50 µL of 1 N H2SO4. Measure absorbance at 450 nm with a plate reader.
The IC50 value is defined as the drug concentration that inhibits the cytokine-induced adhesion molecule expression by 50%. Maximal values for adhesion molecule expression in cytokine-induced cultures was subtracted from the basal level of adhesion molecule expression (minus cytokines) in the cultures to detoermine the level of induction. Each drug concentration was tested in quadruplicate wells. […]

serum lipids [1] = experiment: In vivo screening in rats: TBARS assay on serum (CuSO4-initiated oxidation); parameters: species or system Male Sprague-Dawley rats; settings: thiobarbituric acid reactive substances (nmoles MDA) in serum, percent of control; diet 0.3% for 4 days, N = 5 rats
Source text: A typical experiment consists of 4-6 groups of rats (N = 5 per group) with 1 group being a control which receives no MDL compound and the other groups being treated with 0.3% MDL compound. Some of the compounds are either repeated at 0.3% or evaluated again at the lower dose of 0.1 %. House Male Sprague-Dawley rats, 50-100 g, (Harlan Laboratories, Indianapolis, IN) in groups of 5, feeding ad libitum water and Purina Rodent chow (#5002) with or without MDL compound as a dietary admixture for 4 days. Make dietary admixtures (0.3%) by mixing 1.2 grams of an MDL compound with 400 grams of Purina rodent chow (#5002). Mix the MDL compound with approximately 50 grams of food using a mortar and pestle. This is added to the remainder of the food and mixed for 3 hours on a rotary mixer. In the morning of day 5, anesthetize non-fasted rats with carbon dioxide, and collect blood by cardiac puncture. […] Deaths are recorded as mortality. […]
In this assay the oxidation of serum lipids is initiated with CuSO4, resulting in the formation of aldehydes, such as malondialdehyde (MDA). Upon incubation with thiobarbituric acid, the absorbance of the aldehydes can be detected at 530-540 nm. […] Measure absorbances at 540 nm using a Biotek model EL311 microplate reader. The nmoles of MDA produced are calculated from a standard curve of 0 to 10 nmoles of MDA prepared from malonaldehyde bis(dimethylacetal). […]

[2] = male, Sprague-Dawley, rat, in vivo
Source text: (§2) A typical experiment consists of 4-6 groups of rats (N = 5 per group) with 1 group being a control which receives no MDL compound and the other groups being treated with 0.3% MDL compound. Some of the compounds are either repeated at 0.3% or evaluated again at the lower dose of 0.1 %. House Male Sprague-Dawley rats, 50-100 g, (Harlan Laboratories, Indianapolis, IN) in groups of 5, feeding ad libitum water and Purina Rodent chow (#5002) with or without MDL compound as a dietary admixture for 4 days. Make dietary admixtures (0.3%) by mixing 1.2 grams of an MDL compound with 400 grams of Purina rodent chow (#5002). Mix the MDL compound with approximately 50 grams of food using a mortar and pestle. This is added to the remainder of the food and mixed for 3 hours on a rotary mixer. In the morning of day 5, anesthetize non-fasted rats with carbon dioxide, and collect blood by cardiac puncture. Sacrifice rats by cervical dislocation. Record body weights and liver weights in grams. Record food consumption as grams • day^-1 • rat^-1. Deaths are recorded as mortality. Use aliquots of fresh serum for clinical chemistries, thiobarbituric acid reactive substances (TBARS) and conjugated diene measurements. Freeze aliquots of serum (∼ 0.5mL) and whole livers at -20°C for compound and metabolite concentration determination at a later time.
Determine serum and liver concentrations of parent compound and the metabolites, bisphenol and diphenoquinone, by reverse phase HPLC using a Waters 990 Powerline system. Homegenize livers (1 gram samples) with 5.0mL PBS, pH 7.4, using a Polytron tissue homogenizer at setting 5 for 20-30 seconds. Extract serum or liver homogenates as follows: add 100µL of either serum or homogenate to 2.0mL diethyl ether: ethanol (3:1) while vortexing the tube. Cap the sample tubes and centrifuge for 10 min at 5°C at 3500 rpm in a Beckman GPKR centrifuge with a GH 3.7 rotor. Transfer the supematants to clean tubes and dry under N2. Reconstitute samples with 200µL of acetonitrile : hexane: 0.1 M ammonium acetate (90: 6.5 : 3.5, by vol.). Then, inject 100µL onto a Waters Deltapak C18-300 Å column, and elute with an 83% acetonitrile : 17% water mobile phase at a flow rate of 1.5mL/min. Record absorbances at the wavelengths of 240, 254, and 420nm. Calculate compound concentrations from known quantities of authentic parent compounds after correction for recovery. […]. Calculate concentrations as µg/mL of serum and µg/g of liver.

[3] = In vivo screening in rats: animal parameters (food, body weight, liver weight, mortality); parameters: species or system Male Sprague-Dawley rats; settings: diet 0.3% for 4 days, N = 5 rats; for mortality: deaths per group; for food: grams eaten per day per rat; for food / lw/bw / body wt.: percent of control; for lw/bw: liver weight/body weight; for body wt.: weight in grams
Source text: as §2

serum lipids [4] = experiment: In vivo screening in rats: conjugated diene lag phase of pooled serum; parameters: species or system Male Sprague-Dawley rats; settings: mean of 2 determinations of pooled serum (N = 5), not normalized, Control = 61 min., diet 0.3% for 4 days
Source text: A typical experiment consists of 4-6 groups of rats (N = 5 per group) with 1 group being a control which receives no MDL compound and the other groups being treated with 0.3% MDL compound. Some of the compounds are either repeated at 0.3% or evaluated again at the lower dose of 0.1 %. House Male Sprague-Dawley rats, 50-100 g, (Harlan Laboratories, Indianapolis, IN) in groups of 5, feeding ad libitum water and Purina Rodent chow (#5002) with or without MDL compound as a dietary admixture for 4 days. Make dietary admixtures (0.3%) by mixing 1.2 grams of an MDL compound with 400 grams of Purina rodent chow (#5002). Mix the MDL compound with approximately 50 grams of food using a mortar and pestle. This is added to the remainder of the food and mixed for 3 hours on a rotary mixer. In the morning of day 5, anesthetize non-fasted rats with carbon dioxide, and collect blood by cardiac puncture. Sacrifice rats by cervical dislocation. Record body weights and liver weights in grams. Record food consumption as grams • day^-1 • rat^-1. Deaths are recorded as mortality. […]
Conjugated diene lag phase is another indicator of the oxidation of lipids. […] Measure the absorbances of all cuvettes and set the instrument baseline to zero using the lowest absorbing sample. […] Record the absorbance of each cuvette at 2 min intervals for a period of 840 min. […]

VCAM-1 = experiment: Inhibition of cytokine-induced VCAM-1 expression in proliferating HUVEC (cell-surface ELISA); assay type: cell-based; settings: Homo sapiens, coincubated with tumor necrosis factor-alpha and compound for 20 hr, average of two runs
Protocol: as §1, with “Wash the wells three times with HBSS, then add 100 µL of TMB substrate (BioRad, Hercules, CA) to each well. Stop the reaction after blue color develops by addition of 50 µL of 1 N H2SO4.” left out, “reader. […]” for “reader.”

[5] = In vivo screening in rats: serum clinical chemistries; parameters: species or system Male Sprague-Dawley rats; settings: percent of control, diet 0.3% for 4 days, N = 5 rats; for ALT: alanine aminotransferase in serum; for ALP: alkaline phosphatase in serum; for AST: aspartate aminotransferase in serum; for GLUC: glucose in serum; for CHOL: total cholesterol in serum; for TRIG: triglycerides in serum
Source text: as §2
Allow blood to clot at room temperature for 30 minutes. Obtain serum after centrifugation for 10 min at 4°C at 3000 rpm in a Beckman J-6M/E centrifuge with a JS-4.2 rotor. Analyze fresh serum by a COBAS MIRA S autoanalyzer (Roche Diagnostics) using Roche diagnostic reagents for the following clinical chemistry measurements: alkaline phosphatase (ALP, kit # 44553), alanine transaminase (ALT, kit # 42375), aspartate aminotransferase (AST, kit # 42381), total cholesterol (CHOL, kit # 44334), triglyceride (TG, kit # 44120), and glucose (GLU, kit # 44558). Calculate ALP, ALT, and AST as units/L. Calculate cholesterol, triglycerides, and glucose as mg/dL.

| Structure (SMILES) | pIC50 (ICAM-1; Homo sapiens, coincubated with tumor necrosis factor-alpha and compound for 20 hr, average of two runs, except MDL 107,695 where both values are shown, read-out: ICAM-1 IC50) | TBARS (serum lipids [1]) | Liver Parent [2] | Serum Parent [2] | mortality [3] | food [3] | lw/bw [3] | body wt. [3] | CONJ. DIENE (serum lipids [4]) | pIC50 (VCAM-1) | ALT [5] | ALP [5] | AST [5] | GLUC [5] | CHOL [5] | TRIG [5] | pIC50 (ICAM-1; Homo sapiens, 20 h, read-out: ICAM-1 IC50, HUVEC, coincubated with tumor necrosis factor-alpha and compound for 20 hr, average of two runs, except MDL 107,695 where both values are shown) | pIC50 (ICAM-1; read-out: ICAM-1 IC50, coincubated with tumor necrosis factor-alpha and compound for 20 hr, average of two runs, except MDL 107,695 where both values are shown) |
| --- | --- | --- | --- | --- | --- | --- | --- | --- | --- | --- | --- | --- | --- | --- | --- | --- | --- | --- |
| CC(C)(C)c1cc(OC[Si](C)(C)c2ccco2)cc(C(C)(C)C)c1O [MDL 106,939, Phenol, 2,6-bis(1,1-dimethylethyl)-4-[(2-furanyldimethylsilyl)methoxy]-] | 4.48 | 64% | 97.7 µg/g liver | 3.3 µg/mL of serum | 0% | 88% | 130% | 92% | 391 min | 4.89 | 92% | 123% | 106% | 83% | 120% | 108% |  |  |
| CC(C)(C)c1cc(OC[Si](C)(C)c2cccs2)cc(C(C)(C)C)c1O [MDL 107,965, Phenol, 2,6-bis(1,1-dimethylethyl)-4-[(dimethyl-2-thienylsilyl)methoxy]-] |  | 57% | 82 µg/g liver | 12.6 µg/mL of serum | 0% | 84% | 118% | 84% | 273 min |  | 96% | 137% | 89% | 86% | 121% | 90% | 4.14 | < 4.00 |
